The results in this text go back to paper PMC10172623 (Computational and Structural Biotechnology Journal, 2023).

Assay [1] concerns the target TylF (Streptomyces fradiae, UniProt Q9S4D5, Y139F). Nature of the assay: biochemical.
In assay [2] the target is TylF (Streptomyces fradiae, UniProt Q9S4D5). Nature of the assay: biochemical.

For orientation: Kd means the free concentration of one partner at which half of the binding sites on the other are occupied at equilibrium, for simple one-to-one binding. Read a low Kd as a tighter complex.

TylF (Streptomyces fradiae, UniProt Q9S4D5, Y139F), sequence (Q9S4D5 whole entry Y139F): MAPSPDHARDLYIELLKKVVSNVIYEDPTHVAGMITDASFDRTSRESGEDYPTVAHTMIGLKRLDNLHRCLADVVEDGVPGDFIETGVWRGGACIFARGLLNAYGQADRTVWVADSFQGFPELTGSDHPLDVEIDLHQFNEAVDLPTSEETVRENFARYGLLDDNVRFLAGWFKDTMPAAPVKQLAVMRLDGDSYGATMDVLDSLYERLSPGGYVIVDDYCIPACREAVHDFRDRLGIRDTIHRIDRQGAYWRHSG
TylF (Streptomyces fradiae, UniProt Q9S4D5), sequence (Q9S4D5 whole entry): as the sequence (Q9S4D5 whole entry Y139F) above, with F139Y counted along it

For the compound `C[S+](CC[C@H](N)C(=O)O)C[C@H]1O[C@@H](n2cnc3c(N)ncnc32)[C@H](O)[C@@H]1O` (some centres unmarked) [SAM], the Kd at TylF [1] came out at 265 ± 24.3 µM; on TylF [2] it was 162 ± 91.6 µM.
